Measured values taken from patent US20150204850A1, “PRODUCTION OF BETA-CELLS” (Max-Planck-Gesellschaft zur Förderung der. Wissenschaften …, priority 2009, published 2015).
Marks after values point to notes of the source that are not given here.

How the values were obtained:
[1] = tested on: isolated islets; assay: Perifusion analysis of isolated islets (insulin release); format: cell-based, mouse; settings: 20 mM glucose + glucagon
Source text: […] (2003). […] Obviously, a decrease in digestion time/collagenase concentrations would not have permitted proper islet isolation. We anyway perifused the islets and observed no difference in islet function of younger animals for all the genotypes analyzed. However, in older counterparts, we did detect a decrease in the glucose-stimulated insulin release, albeit not significant. It should be noticed that such a lack of significance might be attributed to the loss of oversized islets induced by experimental conditions.

[2] = tested on: POE::Glucre pancreata; assay: Immunohistochemical cell counts and islet size in pancreata of mice supplemented with glucagon; format: in vivo, mouse
Procedure: We therefore hypothesized that the latter might be driven by the hypoglucagonemia resulting from the α- to β-cell conversion. To test this theory, we injected 3-week-old POE::Pdx1Cre, POE::Glucre, POE::Pax6cre, and control animals twice daily with glucagon during three weeks.
(§1) To assess the effects of glucagon on islet size, mice were injected intraperitoneally twice daily (every 12h) with 5 μg of glucagon and sacrificed after 3 weeks of treatment. For STZ-mediated diabetes induction, a freshly prepared 50 mg/ml solution in 0.1 mol/l sodium citrate, pH 4.5 was injected intraperitoneally (200 mg/kg). Lentivirus production and injection were performed as described previously (Xu et al., 2008). Lastly, BrdU was injected intraperitoneally (200 μl of 100 μl/ml) and was detected by immunohistochemistry (Invitrogen).
Tissues were fixed in 4% PFA overnight at 4° C., embedded in paraffin and 8-μm sections applied to slides. These sections were assayed as described previously (Collombat et al. 2003). In order to perform co-immunofluorescence, the GFP signal was bleached when necessary, as described (Collombat et al., 2007). The primary antibodies used were the following: mouse monoclonal anti-insulin, anti-glucagon ( 1/1000 —Sigma), anti-Ngn3 ( 1/2000—1F25A1B3, BCBC Antibody Core), anti-c-Myc ( 1/100 —Abcam); guinea pig anti-insulin, anti-glucagon ( 1/1000—Sigma); rabbit anti-somatostatin ( 1/600—Dako), anti-PP ( 1/200—Dako), anti-Nkx6.1 ( 1/3000), anti-Nkx2.2 ( 1/1000—kindly provided by T. Jessell), anti-Pax6 ( 1/500 Chemicon), anti-Pax4 ( 1/500), and anti-Arx ( 1/1000); chicken anti-β-galactosidase ( 1/500 Biozol); goat anti-Ngn3 ( 1/1000—kindly provided by M. Sander). The secondary antibodies ( 1/1000—Molecular Probes) used were: 594-alexa anti-mouse; 488-alexa anti-mouse; 594-alexa anti-rabbit; 488-alexa anti-rabbit; 594-alexa anti-guinea pig; 488-alexa anti-guinea pig. Pictures were processed using confocal microscopy. For quantification purpose, stained cells were counted manually on every tenth section and the count reported to the pancreatic area estimated in silico.
The counts in cells positive for the indicated genes are reported per square centimetre of pancreatic tissues of POE::Glucre, POE::Glucre supplemented with glucagon, and glucagon-receptor mutant (GluR-KO) mice using age-matched tissues of WT/POE pancreata as reference. It is worth noticing that, in animals ectopically expressing Pax4 in glucagon expression domains or in GluR-KO mice, Ngn3-producing cells reemerge (note for the latter that due to the bias introduced by the high background, this count should be considered as indicative). […] In the latter case, a concomitant decrease in BrdU-labelled proliferating cell numbers is highlighted (BrdU provided at 5 weeks of age, examination a week later). (n>2, **P<0.01, *P<0.05 using the POE/WT genotype as reference; ^##P<0.01, ^#P<0.05 using the POE::Glucre genotype as reference).

[3] = tested on: POE::Glucre pancreata; assay: Real time RT-PCR of selected transcripts in pancreata of POE::Glucre mice supplemented with glucagon; format: in vivo, mouse; settings: 6 week old POE::Glucre + glucagon for 3 weeks; WT/POE pancreata set at 100%
Procedure: as §1
RNA isolation (RNAeasy, Qiagen) and cDNA synthesis (Supercript choice system, Invitrogen) were performed according to the manufacturer's instructions. cDNA synthesis for analyses aiming to detect Pax4 transcripts was performed using a mixture of eight Pax4-derived (and β-actin-derived) antisense oligonucleotides instead of the provided oligo-dT primers (FIG. 13B).
Quantitative RT-PCR were carried out using the QuantiTect SYBR Green RT-PCR Kit (Qiagen) and validated primers (Qiagen) according to the manufacturer's instructions. The PCR reactions and detection were performed on a Mastercycler® ep realplex cycler using GAPDH and HPRT1 as internal controls for normalization purposes.
The expression of the indicated genes was assayed in pancreatic tissues of POE::Glucre, POE::Glucre supplemented with glucagon, and glucagon-receptor mutant (GluR-KO) mice using age-matched tissues of WT and POE pancreata as reference (values set at 100%). POE::Glucre, but also GluR-KO pancreata display increased contents of Ngn3 and Reg3b transcripts. Additionally, an augmentation in β-cell-specific transcripts is outlined in POE::Glucre, whereas the expression of the α-cell marker genes is reduced Importantly, concomitantly with a significant decrease in Ngn3 and Reg3b transcript contents, a reduction in insulin- and glucagon-producing cell numbers (and associated marker genes) is evidenced in POE::Glucre animals supplemented with glucagon. All values are statistically significant (P<0.05, n>2) versus POE/WT.

[4] = tested on: POE::Glucre animals; assay: Insulin challenge (overall responsiveness to insulin); format: in vivo, mouse; settings: older POE::Glucre animals; Actrapid insulin 0.75 mU/g subcutaneously
Procedure: Note that 600 mg of glucose per dl of blood correspond to the maximal value detectable by our glucose monitoring system. […] However, due to the experimental conditions used, we noticed a disaggregating of the islets (Table 7) and therefore turned to an in vivo approach: (C) To determine the overall responsiveness to insulin, an insulin challenge was performed in animals of the indicated genotypes and ages. […] (D-F) Aiming to also assay β-cell function, we treated POE::Glucre animals of the indicated genotypes and ages with two insulin secretagogues, arginine and liraglutide (a long-acting GLP-1 analog—Novo Nordisk—Denmark).
Animals of the indicated genotypes were injected subcutaneously with Actrapid insulin (0.75 mU/g—Novo Nordisk—Denmark), intravenously with arginine (5 mg—Sigma) or subcutaneously with liraglutide (200 micrograms per kg—Novo Nordisk—Denmark). Following insulin challenge, blood glucose levels were measured as described in the main manuscript. Next to arginine challenge, at each time point, one animal per genotype was sacrificed immediately for serum insulin level determination using RIA (Linco). Lastly, in the case of liraglutide, the latter was injected 30 min prior to glucose challenge. At each time point, three animals per genotype were sacrificed immediately for serum glucose and insulin level determination.

[5] = tested on: POE::Glucre β-cells; assay: Arginine and liraglutide tolerance tests; format: in vivo, mouse; settings: 10-week old POE::Glucre; arginine 5 mg intravenously; lower than in younger animals
[6] = tested on: β-cells; assay: STZ-mediated diabetes induction (β-cell depletion); format: in vivo, mouse; settings: mice, STZ 200 mg/kg intraperitoneally, single dose
Source text: We reasoned that such cells might be capable of replacing lost β-cells in diabetic mice. […] A higher mortality rate was found among animals older than 4 weeks, as compared to younger mice. It should be noticed that these animals were already hyperglycemic and weakened prior to STZ injection due to a combined insulin insensitivity and β-cell failure to optimally respond to a glucose challenge (FIG. 24). […] Ten days post-injection, only few insulin-producing cells were detected (FIG. 7F-G). […]
We reasoned that the continuous β-cell neogenesis observed in double-transgenic animals might be able to rescue experimentally-induced diabetes. Therefore, the function of the newly formed β-cells was assessed in diabetic mice with more than 95% β-cell loss following STZ treatment. […] Also under these conditions, clusters of glucagon^+ cells were detected at one pole of the islets, adjacent to duct structures, such cells subsequently adopting a β-cell phenotype.
To assess the effects of glucagon on islet size, mice were injected intraperitoneally twice daily (every 12h) with 5 μg of glucagon and sacrificed after 3 weeks of treatment. […] Lastly, BrdU was injected intraperitoneally (200 μl of 100 μl/ml) and was detected by immunohistochemistry (Invitrogen).

[7] = 6 week old POE::Glucre + glucagon

glucagon
% of insulin released reported to the total insulin cell content/2 h ([1]; 3-week old Control islets): 8.9 ± 1.1%
% of insulin released reported to the total insulin cell content/2 h ([1]; 3-week old POE::Glucre islets): 10.6%
% of insulin released reported to the total insulin cell content/2 h ([1]; 12-week old Control islets): 9.5 ± 0.8%
% of insulin released reported to the total insulin cell content/2 h ([1]; 12-week old POE::Glucre islets): 6.6 ± 1.2%
Islet size ([2]; 3-week-old POE::Pdx1Cre, POE::Glucre, POE::Pax6cre mice injected twice daily with glucagon during three weeks, vs controls): significant decrease in islet size
Glucagon-positive cell count [2, 7]: 6 ± 4**^# per square centimetre
Insulin-positive cell count [2, 7]: 394 ± 132**^## per square centimetre
BrdU (1 week) labelled cell count ([2]; 6 week old POE::Glucre + glucagon, BrdU at 5 weeks of age, examination a week later): 28 ± 7^# per square centimetre
Ngn3-positive cell count ([2]; 6 week old POE::Glucre + glucagon, count indicative (high background)): 38 ± 11^# per square centimetre
Arx transcript (real time RT-PCR) [3]: 15 ± 10%
Glucagon transcript (real time RT-PCR) [3]: 18 ± 9%
Insulin transcript (real time RT-PCR) [3]: 285 ± 52%
Ngn3 transcript (real time RT-PCR) [3]: 475 ± 81%
Nkx6.1 transcript (real time RT-PCR) [3]: 183 ± 20%
Pax4 transcript (real time RT-PCR) [3]: 555 ± 91%
Pdx1 transcript (real time RT-PCR) [3]: 279 ± 62%
Reg3b transcript (real time RT-PCR) [3]: 434 ± 63%

insulin: Actrapid insulin, Novo Nordisk, Denmark
Glycemia after insulin challenge [4]: did not observe any significant modification of the glycemia

N=C(N)NCCC[C@H](N)C(=O)O [arginine]
Insulin secretion after arginine challenge [5]: able to elicit an insulin secretion

CN(N=O)C(=O)N[C@H]1C(O)O[C@H](CO)[C@@H](O)[C@@H]1O (mixture of isomers) [STZ, streptozotocin]
β-cell loss following STZ treatment [6]: more than 95%
